Results: publication PMC7504751, “Potential of 2-Chloro-N-(4-fluoro-3-nitrophenyl)acetamide Against Klebsiella pneumoniae and In Vitro Toxicity Analysis” (Molecules, 2020)
Converted amounts (≈) assume the structure as drawn. Read-outs that look alike come from different tables or passages of the source.

Experiments:
[1] = tested on: K. pneumoniae strains; experiment: Minimum bactericidal concentration (MBC); type: cell-based, Klebsiella pneumoniae; conditions: for Effect: from MBC/MIC ratio
Protocol: The clinical isolates strains of K. pneumoniae were used in this study belong to the MICOTECA of the Antibacterial and Antifungal Activity Research Laboratory of the Federal University of Paraíba, Brazil, which are: KP-25, KP-26, KP-56, KP-83, KP-87, KP-138, KP-143, KP-166, KP-173, KP-176, KP-260, and KP-326. The American Type Culture Collection strain ATCC-700603 was used as controls. For use in the assays, bacterial suspensions were prepared in 0.9% saline solution, from fresh cultures, and adjusted to the McFarland standard 0.5 scale.
After MIC reading, the A2 minimum bactericidal concentration was determined by removing aliquots from the microdilution plates in the wells corresponding to concentrations equivalent to MIC, 2× MIC, 4× MIC, and 8× MIC and inoculating in new plates containing only culture broth. All controls were performed in parallel. MBC is defined as the lowest concentration capable of causing complete inhibition of bacterial growth after 24 h at 35 ± 2 °C [21, 44].

[2] = tested on: K. pneumoniae (ATCC-700603 and KP-56); experiment: Time-kill kinetics; type: cell-based, Klebsiella pneumoniae
Protocol: The determination of the action time of A2 substance against K. pneumoniae (ATCC-700603 and KP-56) was carried out exposing the microorganisms to concentrations equivalent to MIC and 2× MIC during times 0, 2, 4, 6, 8, 10, and 24 h. After incubation on Mueller–Hinton agar, bacterial colonies were counted. Bactericidal activity was defined as a ≥3-log reduction in bacterial counts (log10 CFU/mL).

[3] = tested on: K. pneumoniae; experiment: Effect on bacterial cell integrity (release of 260 nm absorbing material); type: cell-based, Klebsiella pneumoniae; conditions: compared to negative control, p ≤ 0.0001
Protocol: The cell integrity can be assessed by releasing intracellular material, mainly nucleotides, which absorb 260 nm wavelengths. The K pneumoniae strains ATCC-700603, KP-26, KP-56, and KP-143 were used to perform this test. First, the bacterial inoculum was incubated in BHI broth (1 × 10^7 CFU/mL) overnight at 35 ± 2 °C. Then, centrifugation was performed at 400× g for 10 min. The cell pellet was washed three times with sterile PBS (phosphate-buffered saline) and resuspended in PBS containing the A2 substance at MIC and 2× MIC concentrations. As a negative control, suspensions that underwent the same procedures, but without treatment with the substance, were used. The tubes corresponding to the MIC were incubated for 10 h at 35 ± 2 °C, and the tubes corresponding to the 2× MIC, for 6 h. After incubation, the suspensions were centrifuged at 400× g for 10 min and the supernatants were read on a spectrophotometer at 260 nm. All analyses were performed in triplicate.

[4] = Hemolytic activity; type: cell-based; conditions: human, 0.5% red blood cell suspension
Protocol: (§1) The tests were performed according to the recommendations established by the Code of Ethics of the World Medical Association, after approval by the ethics committee of the Centro Universitário de Patos (number: 3621284). Blood samples (types A, B, and O) and smears of oral mucosa were donated by young, healthy adults.
The red blood cell (RBC) samples from blood donors were diluted in 0.9% NaCl at a 1:30 ratio and centrifuged at 2500 rpm for five minutes to obtain the 0.5% suspension free of white blood cells and platelets. Then, the A2 substance was added to the red blood cell suspensions, at 50, 100, 500, and 1000 µg/mL concentrations. As controls, a suspension of red cells without treatment (0% hemolysis) were used as a negative control and a suspension of red cells treated with 1% Triton X-100 (100% hemolysis) as a positive control. The assay was incubated for one hour at 22 ± 2 °C. After that time, the samples were centrifuged at 700× g for 5 min and hemolysis was quantified by spectrophotometry at a wavelength of 540 nm.

[5] = tested on: red blood cells (RBC) of the ABO system; experiment: Antihemolytic activity (osmotic fragility); type: cell-based, human; conditions: 0.24% NaCl
Protocol: as §1
The analysis of the osmotic fragility of the red cells was performed using previously prepared red blood cell suspensions at 0.5%. Different concentrations (50, 100, 500, and 1000 µg/mL) of the A2 substance were used for the treatment of 0.5% RBC suspensions for 1h at 22 ± 2 °C. The samples were centrifuged at 2500 rpm for 5 min and the supernatant was discarded. The erythrocytes were resuspended in a hypotonic solution of 0.24% sodium chloride for one hour at 22 ± 2 °C. After this period, the samples were centrifuged at 700× g for 5 min and the hemolysis of the supernatant was quantified by spectrophotometry at 540 nm. As controls, a suspension of untreated red blood cells was used as a negative control (0% hemolysis) and in a hypotonic solution as a positive control (100% hemolysis).

O=C(CCl)Nc1ccc(F)c([N+](=O)[O-])c1 [A2, 2-chloro-N-(4-fluoro-3-nitrophenyl)acetamide]
MBC ([1]; Klebsiella pneumoniae, ATCC700603, strain ATCC-700603, read-out: MBC): 512 µg/mL (≈ 2200 µM)
MBC ([1]; Klebsiella pneumoniae, all K. pneumoniae strains used in this study, read-out: MBC): 512 µg/mL (≈ 2200 µM)
mode of action (bactericidal / bacteriostatic) ([1]; all K. pneumoniae strains, from the MIC): bactericidal
Effect ([1]; strain ATCC-700603): Bactericide (bactericidal activity when the ratio between MBC and MIC is ≤4)
MBC ([1]; strain KP-25): 512 µg/mL (≈ 2200 µM)
Effect ([1]; strain KP-25): Bactericide (bactericidal activity when the ratio between MBC and MIC is ≤4)
MBC ([1]; strain KP-26): 512 µg/mL (≈ 2200 µM)
Effect ([1]; strain KP-26): Bactericide (bactericidal activity when the ratio between MBC and MIC is ≤4)
MBC ([1]; strain KP-56): 512 µg/mL (≈ 2200 µM)
Effect ([1]; strain KP-56): Bactericide (bactericidal activity when the ratio between MBC and MIC is ≤4)
MBC ([1]; strain KP-83): 512 µg/mL (≈ 2200 µM)
Effect ([1]; strain KP-83): Bactericide (bactericidal activity when the ratio between MBC and MIC is ≤4)
MBC ([1]; strain KP-87): 512 µg/mL (≈ 2200 µM)
Effect ([1]; strain KP-87): Bactericide (bactericidal activity when the ratio between MBC and MIC is ≤4)
MBC ([1]; strain KP-138): 512 µg/mL (≈ 2200 µM)
Effect ([1]; strain KP-138): Bactericide (bactericidal activity when the ratio between MBC and MIC is ≤4)
MBC ([1]; strain KP-143): 512 µg/mL (≈ 2200 µM)
Effect ([1]; strain KP-143): Bactericide (bactericidal activity when the ratio between MBC and MIC is ≤4)
MBC ([1]; strain KP-166): 512 µg/mL (≈ 2200 µM)
Effect ([1]; strain KP-166): Bactericide (bactericidal activity when the ratio between MBC and MIC is ≤4)
MBC ([1]; strain KP-173): 512 µg/mL (≈ 2200 µM)
Effect ([1]; strain KP-173): Bactericide (bactericidal activity when the ratio between MBC and MIC is ≤4)
MBC ([1]; strain KP-176): 512 µg/mL (≈ 2200 µM)
Effect ([1]; strain KP-176): Bactericide (bactericidal activity when the ratio between MBC and MIC is ≤4)
MBC ([1]; strain KP-260): 512 µg/mL (≈ 2200 µM)
Effect ([1]; strain KP-260): Bactericide (bactericidal activity when the ratio between MBC and MIC is ≤4)
MBC ([1]; strain KP-326): 512 µg/mL (≈ 2200 µM)
Effect ([1]; strain KP-326): Bactericide (bactericidal activity when the ratio between MBC and MIC is ≤4)
time of treatment to total reduction of viable cells ([2]; A2 at 2× MIC): 6 h
time of treatment to total reduction of viable cells ([2]; A2 at MIC): 10 h
release of 260 nm absorbing material (cell lysis) ([3]; 2× MIC, six hours): Cell lysis is also evident
release of 260 nm absorbing material (cytoplasmic contents) ([3]; MIC, 10 h of treatment): significant release of cytoplasmic contents
hemolysis at 1 h ([4]; blood types A, B and O, 50–500 µg/mL, all tested blood types, 1 h at 22 ± 2 °C): 4 to 20%
hemolysis at 1 h, 1000 µg/mL ([4]; blood type O, read-out: hemolysis (average erythrocyte lysis)): 8%
hemolysis at 1 h, 1000 µg/mL ([4]; blood types A and B, read-out: hemolysis): 37 to 47%
percentage of hemolysis in hypotonic solution (anti-hemolytic evaluation) ([5]; 1000 µg/mL, type B red blood cells): > 80%
percentage of hemolysis in hypotonic solution (anti-hemolytic evaluation), class ([5]; all concentrations (50–1000 µg/mL), three ABO blood types, except 1000 µg/mL in type B): moderate (moderate (40% and 80%))
